Measured values from PubChem BioAssay (NCI).
Where “and” joins values, the source holds several entries; their conditions need not be identical. Equal entries are not always repeated.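 All cell lines were grown in 96-well plates and treated with compound for 48 hours. GI50 marks 50% less growth. The concentration for full growth arrest is given as TGI.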

Tests used:
Experiment in all cases: growth of human tumour cells (NCI), 48 h
DU-145 prostate = test system: DU-145 prostate
MDA-MB-435 = test system: MDA-MB-435
PC-3 prostate = test system: PC-3 prostate
T-47D breast = test system: T-47D breast
MDA-MB-231 breast = test system: MDA-MB-231 breast
SNB-78 CNS = test system: SNB-78 CNS
XF 498 CNS = test system: XF 498 CNS
MDA-N = test system: MDA-N

Row | SMILES | GI50 (DU-145 prostate) | TGI (DU-145 prostate) | GI50 (MDA-MB-435) | TGI (MDA-MB-435) | GI50 (PC-3 prostate) | TGI (PC-3 prostate) [µM] | GI50 (T-47D breast) | TGI (T-47D breast) | GI50 (MDA-MB-231 breast) | TGI (MDA-MB-231 breast) | TGI (SNB-78 CNS) [µM] | TGI (XF 498 CNS) [µM] | TGI (MDA-N) [µM]
1 | COc1ccc(-n2cc(-c3cc(OC)c(OC)c(OC)c3)nc2SCc2ccc(Cl)cc2)cc1OC | > 100 µM | > 100 µM | > 100 µM | > 100 µM | 35.3 µM | > 100 | 15.1 µM | > 100 µM | > 100 µM | > 100 µM |  |  | 
2 | O=CC(OC(=O)c1ccccc1)C(OC(=O)c1ccccc1)C(COC(c1ccccc1)(c1ccccc1)c1ccccc1)OC(=O)c1ccccc1 (centres undefined) | 15.3 µM | 28.6 µM | 12.8 µM | 46.7 µM | 9.64 µM | 24.7 | 4.65 µM | 22.7 µM | 21.6 µM | > 100 µM |  |  | 
3 | Oc1ccc(NC(=S)Nc2ccccc2)cc1 | > 100 µM | > 100 µM | > 100 µM | > 100 µM | > 100 µM | > 100 | > 100 µM | > 100 µM | > 100 µM | > 100 µM |  |  | 
4 | CCN(C(=O)N1CCN(c2cc3c(cc2F)c(=O)c(C(=O)O)cn3C2CC2)CC1)c1nc(-c2ccccc2)cs1 | 3.31 µM | > 100 µM | 2.87 µM | 11.6 µM | 2.74 µM | > 100 | 2.57 µM | > 100 µM | 2.11 µM | 5.92 µM |  |  | 
5 | C=CC(=O)N[C@@H]1CN(c2nc(Nc3cn(C)nc3OC)c3ncn(C)c3n2)C[C@H]1F | 4.02 µM | > 91.7 µM | 15.8 µM | 38.5 µM | 60.1 µM | > 100 | 1.74 µM | > 100 µM | 23.8 µM | > 88.2 µM |  |  | 
6 | CC(=O)OCCOCn1c2ccccc2c2c3c(c4c5ccccc5n(COCCOC(C)=O)c4c21)C(=O)N(Cc1ccccc1)C3=O |  |  |  |  |  |  |  |  |  |  | > 100 |  | 
7 | C#CCN(N=O)C(=O)NC(CCCCNC(=O)OCc1ccccc1)C(=O)OCc1ccccc1 (centres undefined) |  |  |  |  |  |  |  |  |  |  | > 100 |  | 
8 | Cc1ccc2nc(NC(=O)C(=O)C(C(=O)c3ccc4ccccc4c3)C3OC(=O)c4ccccc43)sc2c1 (centres undefined) |  |  |  |  |  |  |  |  |  |  | 27.7 |  | 
9 | CC(=O)NNc1nc(C)c(C(=O)NNC(=O)C(=O)Nc2ccc(Cl)c([N+](=O)[O-])c2)s1 |  |  |  |  |  |  |  |  |  |  | > 100 | > 100 | 
10 | C=C1CCC2CC1C(C(=O)c1c[nH]c3ccccc13)=NC2(C)C (centres undefined) |  | > 100 µM |  | > 100 µM |  | > 100 |  | > 100 µM |  | > 100 µM |  |  | > 100
11 | COc1cc(/C=C/C(=O)c2cccc3ccccc23)cc(OC)c1OC |  |  |  |  |  |  |  |  |  |  | 12.8 | 20.5 | 
12 | COC(=O)C(=O)C(CC(=O)Nc1cc(Cl)ccc1Cl)C(=O)OC (centres undefined) |  |  |  |  |  |  |  |  |  |  | > 100 |  | 
13 | Cc1cc(F)c(C(=O)Nc2cccc(-c3nncn3C(C)C)n2)cc1-n1cnc(C2CC2)c1 |  | > 100 µM | 11.4 µM | > 100 µM | 16.6 µM | 92.4 | 2.01 µM | 9.95 µM | 18.1 µM | 91.5 µM |  |  | 
14 | Clc1ccc(-c2cc(-c3ccccc3)nc(N3CCN(CCCNc4ccnc5cc(Cl)ccc45)CC3)n2)cc1 | 1.52 µM | 2.94 µM | 1.73 µM | 3.16 µM |  |  | 1.14 µM | 3.38 µM | 1.67 µM | 3.19 µM |  |  | 
15 | CCCCCC/C=C/C#CCCCCCCCC(=O)O |  | > 100 µM |  | > 100 µM |  | > 100 |  | > 100 µM |  | > 100 µM |  |  | > 100
16 | O=C1/C(=C/c2cccnc2)SC(=S)N1Cc1ccco1 |  | 9.22 µM |  | 5.54 µM |  | > 36.6 |  | 64.6 µM |  | > 51.1 µM |  |  | 6.29
17 | NC(CCSCC(F)(F)F)C(=O)O (centres undefined) |  |  |  |  |  |  |  |  |  |  | > 100 |  | 
18 | Cc1ccc2c(c1)[n+](=O)c(C(=O)c1cccs1)c(C(F)(F)F)n2[O-] | 0.913 µM and 0.573 µM | 2.08 µM and 2.42 µM | 1.37 µM and 1.22 µM | 5.41 µM and 9.08 µM | 0.528 µM and 1.38 µM |  | 1.55 µM and 0.183 µM | 9.38 µM and 7.9 µM | 1.01 µM and 1.08 µM | 2.8 µM and 6.37 µM |  |  | 
19 | Oc1ccc2ccccc2c1CCc1c(O)ccc2ccccc12 |  |  |  | 25.4 µM |  | 26.9 |  | 12.5 µM |  | 27.5 µM |  |  | 27.6
20 | COc1ccc(C(=O)/C=C/c2sc(Cl)nc2Cl)cc1 | 1.9 µM | 3.55 µM | 3.11 µM | 11.4 µM | 2.83 µM | 11.6 | 2.93 µM | 9.23 µM | 1.33 µM | 4.64 µM |  |  | 
21 | C[C@@H]1CC[C@H]2[C@@H](C)C(O)O[C@@H]3O[C@]4(C)CC[C@@H]1[C@]32OO4 (some centres undefined) | 5.27 µM | 17.4 µM | 0.361 µM | 10.8 µM | 0.0662 µM | > 43.3 | 0.285 µM |  | 6.16 µM | > 56.8 µM |  |  | 
22 | CN1CCN(CCCOc2cccc3nc(Nc4cc(Cl)cc(Cl)c4)ccc23)CC1 | 1.69 µM | 3.13 µM | 1.68 µM | 3.2 µM | 1.76 µM | 3.29 | 1.79 µM | 3.76 µM | 1.57 µM | 3.12 µM |  |  | 
23 | Nc1n[n+]([O-])c2cc([N+](=O)[O-])ccc2[n+]1[O-] |  | 31.7 µM |  | 3.26 µM |  | > 100 |  | 18.6 µM |  | 44.7 µM |  |  | 4.93
24 | C[C@@H](C1CC[C@H]2[C@@H]3[C@@H]4O[C@@H]4[C@@]4(O)CC=CC(=O)[C@]4(C)[C@H]3C[C@H](O)[C@]12C)[C@H]1C[C@]2(C)O[C@]2(C)C(=O)O1 (some centres undefined) |  | > 100 µM |  | > 100 µM |  | > 100 |  | > 100 µM |  | > 100 µM |  |  | > 100
25 | OCC1NC(COC2OC(CO)C(O)C(O)C2O)C(O)C(O)C1O (centres undefined) |  | > 100 µM |  | > 100 µM |  | > 100 |  | > 100 µM |  | > 100 µM |  |  | > 100
26 | Nc1nc(=O)n(C2CC(O)C(CO)O2)cc1F (centres undefined) |  | > 100 µM | > 100 µM | > 100 µM | 1.47 µM | > 100 | > 100 µM | > 100 µM | 10.7 µM | > 100 µM |  |  | 
27 | CNC(=O)c1cc(Oc2ccc3nc(NC(=O)Nc4ccc(CN5CCOCC5)c(C(F)(F)F)c4)sc3c2)ccn1 | 2.73 µM | 9.4 µM | 1.83 µM | 4.38 µM | 2.04 µM | 6.22 | 1.53 µM | 6.82 µM | 2.14 µM | 5.8 µM |  |  | 
28 | COc1ccc(-c2nn(-c3cccc(Cl)c3)cc2/C=C2\NC(=S)N(c3ccc(Cl)cc3)C2=O)cc1 | 8.75 µM | > 25 µM | 7.38 µM | > 25 µM | 5.37 µM | 21.6 | 3.61 µM | 9.7 µM | 3.33 µM | 11.5 µM |  |  | 
